Source: patent US10039759B2, “Quinolines as FGFR kinase modulators” (priority 2011, dated 2018)
Read-outs that look alike come from different tables or passages of the source.

Columns and labels:
FGFR2 (h) = FGFR2 (h) (Homo sapiens, UniProt P21802); experiment: FGFR2 (enzymatic assay), TR-FRET; type: biochemical; conditions: 60 min, pIC50 = -log IC50 (M), average if tested multiple times
FGFR3 (h) = FGFR3 (h) (Homo sapiens, UniProt P22607); experiment: FGFR3 (enzymatic assay), TR-FRET; type: biochemical; conditions: 60 min, pIC50 = -log IC50 (M), average if tested multiple times
FGFR4 (h) = FGFR4 (h) (Homo sapiens, UniProt P22455); experiment: FGFR4 (enzymatic assay), TR-FRET; type: biochemical; conditions: FGFR 4 pIC50, 5 μM ATP, 60 min; pIC50 = -log IC50 (M); average if tested multiple times
Chain of FGFR4 (h) (P22455 22-802): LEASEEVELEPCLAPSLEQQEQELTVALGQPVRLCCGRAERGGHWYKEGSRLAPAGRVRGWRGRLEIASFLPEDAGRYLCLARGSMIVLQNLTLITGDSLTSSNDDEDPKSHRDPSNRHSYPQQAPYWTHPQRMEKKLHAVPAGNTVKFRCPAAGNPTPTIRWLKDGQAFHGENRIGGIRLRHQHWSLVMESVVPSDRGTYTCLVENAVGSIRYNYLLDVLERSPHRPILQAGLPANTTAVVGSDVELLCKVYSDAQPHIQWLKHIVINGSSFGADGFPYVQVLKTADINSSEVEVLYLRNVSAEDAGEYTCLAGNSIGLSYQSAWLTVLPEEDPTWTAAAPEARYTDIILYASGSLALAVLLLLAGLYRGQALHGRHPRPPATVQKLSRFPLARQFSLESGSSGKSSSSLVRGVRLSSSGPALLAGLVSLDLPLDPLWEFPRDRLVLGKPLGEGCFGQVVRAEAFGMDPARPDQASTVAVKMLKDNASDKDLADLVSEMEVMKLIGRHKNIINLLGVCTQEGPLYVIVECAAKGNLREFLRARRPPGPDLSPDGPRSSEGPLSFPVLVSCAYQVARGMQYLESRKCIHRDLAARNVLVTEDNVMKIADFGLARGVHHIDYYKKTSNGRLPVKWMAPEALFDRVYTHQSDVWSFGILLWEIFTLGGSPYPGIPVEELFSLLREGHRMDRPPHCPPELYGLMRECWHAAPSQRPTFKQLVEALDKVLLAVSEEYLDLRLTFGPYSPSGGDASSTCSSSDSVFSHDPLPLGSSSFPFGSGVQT

KDR (h) = KDR (h) (Homo sapiens, UniProt P35968); experiment: KDR (VEGFR2) (enzymatic assay), TR-FRET; type: biochemical; conditions: 120 min, pIC50 = -log IC50 (M), average if tested multiple times
Chain of KDR (h) (P35968 20-1356): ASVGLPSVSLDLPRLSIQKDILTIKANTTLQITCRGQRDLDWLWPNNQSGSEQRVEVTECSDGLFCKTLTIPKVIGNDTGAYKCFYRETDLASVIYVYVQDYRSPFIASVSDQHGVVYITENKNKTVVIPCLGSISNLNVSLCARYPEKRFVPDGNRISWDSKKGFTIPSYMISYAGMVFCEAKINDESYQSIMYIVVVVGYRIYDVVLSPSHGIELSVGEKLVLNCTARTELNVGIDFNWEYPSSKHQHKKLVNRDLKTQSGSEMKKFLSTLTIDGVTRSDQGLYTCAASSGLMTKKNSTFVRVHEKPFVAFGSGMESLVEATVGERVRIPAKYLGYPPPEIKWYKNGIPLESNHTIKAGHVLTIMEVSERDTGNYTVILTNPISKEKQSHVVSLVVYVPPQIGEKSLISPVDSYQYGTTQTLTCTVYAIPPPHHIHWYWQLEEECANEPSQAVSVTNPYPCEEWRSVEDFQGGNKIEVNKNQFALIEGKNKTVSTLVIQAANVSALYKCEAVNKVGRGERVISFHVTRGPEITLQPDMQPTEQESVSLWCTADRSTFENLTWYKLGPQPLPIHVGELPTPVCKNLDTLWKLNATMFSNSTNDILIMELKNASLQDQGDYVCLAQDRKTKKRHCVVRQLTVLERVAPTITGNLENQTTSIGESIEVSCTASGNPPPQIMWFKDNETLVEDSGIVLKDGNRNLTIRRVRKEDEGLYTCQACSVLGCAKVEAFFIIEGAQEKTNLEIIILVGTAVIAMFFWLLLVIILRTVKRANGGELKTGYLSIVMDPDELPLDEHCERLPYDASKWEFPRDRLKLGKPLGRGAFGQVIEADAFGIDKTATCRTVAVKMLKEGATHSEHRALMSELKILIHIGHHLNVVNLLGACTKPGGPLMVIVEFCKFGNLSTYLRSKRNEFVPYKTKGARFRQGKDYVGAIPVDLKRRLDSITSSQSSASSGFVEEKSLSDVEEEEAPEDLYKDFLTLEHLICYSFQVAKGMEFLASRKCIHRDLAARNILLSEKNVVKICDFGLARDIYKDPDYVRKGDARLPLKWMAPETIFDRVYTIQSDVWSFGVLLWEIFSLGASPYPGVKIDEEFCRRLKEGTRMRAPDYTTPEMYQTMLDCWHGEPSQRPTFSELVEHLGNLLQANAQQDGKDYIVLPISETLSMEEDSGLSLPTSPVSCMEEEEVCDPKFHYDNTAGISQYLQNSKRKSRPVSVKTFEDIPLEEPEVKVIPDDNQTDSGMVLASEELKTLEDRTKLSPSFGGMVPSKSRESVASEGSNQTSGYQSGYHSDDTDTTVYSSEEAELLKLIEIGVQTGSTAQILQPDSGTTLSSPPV
Description: KDR (VEGFR2) (Enzymatic Assay)
In a final reaction volume of 30 μL, KDR (h) (150 ng/ml) was incubated with 50 mM HEPES pH 7.5, 6 mM MnCl2, 1 mM DTT, 0.1 mM Na3VO4, 0.01% Triton-X-100, 500 nM Btn-Flt3 and 3 μM ATP in the presence of compound (1% DMSO final). After incubation for 120 minutes at room temperature the reaction was stopped with 2.27 nM EU-anti P-Tyr, 7 mM EDTA, 31.25 nM SA-XL-665 and 0.02% BSA which was present for 60 minutes at room temperature. Time-Resolved Fluorescence Resonance Energy Transfer (TR-FRET) signal (ex340 nm. Em 620 nm, em 655 nm) was measured afterwards and results are expressed in RFU (Relative Fluorescence Units). In this assay, the inhibitory effect of different compound concentrations (range 10 μM to 0.1 nM) was determined and used to calculate an IC50 (M) and pIC50 (−log IC50) value.

FGFR1 (h) = FGFR1 (h) (Homo sapiens, UniProt P11362); experiment: FGFR1 (enzymatic assay), TR-FRET; type: biochemical; conditions: FGFR 1 pIC50, 5 μM ATP, 60 min; pIC50 = -log IC50 (M); average if tested multiple times
[1] = target: T1, Ba/F3-FGFR1-transfected cells (Homo sapiens, UniProt P11362, cells depend on it, form not given); experiment: Ba/F3-FGFR1 (minus IL3 or plus IL3) cellular proliferation assay, Alamar Blue; type: cell-based; conditions: minus IL3, 24 hours
T1 construct: other: minus IL3; 24 hours, Alamar Blue
T1 sequence (P11362 whole entry, change not shown): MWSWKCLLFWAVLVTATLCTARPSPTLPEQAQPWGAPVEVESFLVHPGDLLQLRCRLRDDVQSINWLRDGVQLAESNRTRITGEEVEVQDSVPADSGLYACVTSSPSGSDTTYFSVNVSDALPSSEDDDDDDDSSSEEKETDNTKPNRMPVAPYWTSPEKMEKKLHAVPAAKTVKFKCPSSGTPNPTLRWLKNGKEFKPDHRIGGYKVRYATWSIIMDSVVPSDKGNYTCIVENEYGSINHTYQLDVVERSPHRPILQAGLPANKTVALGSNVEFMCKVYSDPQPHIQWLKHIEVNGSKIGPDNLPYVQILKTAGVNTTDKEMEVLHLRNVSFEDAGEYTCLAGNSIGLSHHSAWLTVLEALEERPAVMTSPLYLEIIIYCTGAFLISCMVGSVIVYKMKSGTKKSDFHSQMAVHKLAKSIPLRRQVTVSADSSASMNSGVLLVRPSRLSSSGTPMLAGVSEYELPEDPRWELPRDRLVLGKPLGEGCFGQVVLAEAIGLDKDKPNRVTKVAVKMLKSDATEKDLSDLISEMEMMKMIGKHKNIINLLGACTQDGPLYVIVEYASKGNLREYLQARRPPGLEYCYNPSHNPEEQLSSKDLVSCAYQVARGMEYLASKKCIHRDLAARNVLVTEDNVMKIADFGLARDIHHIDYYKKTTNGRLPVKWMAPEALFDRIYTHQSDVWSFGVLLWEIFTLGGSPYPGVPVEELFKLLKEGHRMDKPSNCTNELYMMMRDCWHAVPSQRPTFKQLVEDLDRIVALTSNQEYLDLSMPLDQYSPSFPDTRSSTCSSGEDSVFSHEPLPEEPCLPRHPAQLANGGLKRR
Description: Ba/F3-FGFR1 (Minus IL3 or Plus IL3) (Cellular Proliferation Assay)
(§1) In a 384 well plate, 100 nl of compound dilution in DMSO was sprayed before adding 50 μl cell culture medium (phenol red free RPMI-1640, 10% FBS, 2 mM L-Glutamine and 50 μg/ml Gentamycin) containing 20000 cells per well of Ba/F3-FGFR1-transfected cells. Cells were put in an incubator at 37° C. and 5% CO2. After 24 hours, 10 μl of Alamar Blue solution (0.5 mM K3Fe(CN)6, 0.5 mM K4Fe(CN)6, 0.15 mM Resazurin and 100 mM Phosphate Buffer) was added to the wells, incubated for 4 hours at 37° C. and 5% CO2 before RFU's (Relative Fluorescence Units) (ex. 540 nm., em. 590 nm.) were measured in a fluorescence plate reader.
(§2) In this assay, the inhibitory effect of different compound concentrations (range 10 μM to 0.1 nM) was determined and used to calculate an IC50 (M) and pIC50 (−log IC50) value. As a counterscreen the same experiment was performed in the presence of 10 ng/ml murine IL3.

[2] = target: T2, Ba/F3-FGFR3-transfected cells (Homo sapiens, UniProt P22607, cells depend on it, form not given); experiment: Ba/F3-FGFR3 (minus IL3 or plus IL3) cellular proliferation assay, Alamar Blue; type: cell-based; conditions: minus IL3; 24 hours, Alamar Blue
T2 construct: BAF3-FGFR3 (MIN IL3 Alamar Blue- pIC50); other: minus IL3; 24 hours, Alamar Blue
Description: (§3) Ba/F3-FGFR3 (Minus IL3 or Plus IL3) (Cellular Proliferation Assay)
as §1, with “Ba/F3-FGFR3-transfected” for “Ba/F3-FGFR1-transfected”
as §2

[3] = target: T3, Ba/F3-KDR-transfected cells (Homo sapiens, UniProt P35968, cells depend on it, form not given); experiment: Ba/F3-KDR (minus IL3 or plus IL3) cellular proliferation assay, Alamar Blue; type: cell-based; conditions: minus IL3; 24 hours, Alamar Blue
T3 construct: BAF3-KDR (MIN IL3 Alamar Blue pIC50); other: minus IL3; 24 hours, Alamar Blue
T3 sequence (P35968 whole entry, change not shown): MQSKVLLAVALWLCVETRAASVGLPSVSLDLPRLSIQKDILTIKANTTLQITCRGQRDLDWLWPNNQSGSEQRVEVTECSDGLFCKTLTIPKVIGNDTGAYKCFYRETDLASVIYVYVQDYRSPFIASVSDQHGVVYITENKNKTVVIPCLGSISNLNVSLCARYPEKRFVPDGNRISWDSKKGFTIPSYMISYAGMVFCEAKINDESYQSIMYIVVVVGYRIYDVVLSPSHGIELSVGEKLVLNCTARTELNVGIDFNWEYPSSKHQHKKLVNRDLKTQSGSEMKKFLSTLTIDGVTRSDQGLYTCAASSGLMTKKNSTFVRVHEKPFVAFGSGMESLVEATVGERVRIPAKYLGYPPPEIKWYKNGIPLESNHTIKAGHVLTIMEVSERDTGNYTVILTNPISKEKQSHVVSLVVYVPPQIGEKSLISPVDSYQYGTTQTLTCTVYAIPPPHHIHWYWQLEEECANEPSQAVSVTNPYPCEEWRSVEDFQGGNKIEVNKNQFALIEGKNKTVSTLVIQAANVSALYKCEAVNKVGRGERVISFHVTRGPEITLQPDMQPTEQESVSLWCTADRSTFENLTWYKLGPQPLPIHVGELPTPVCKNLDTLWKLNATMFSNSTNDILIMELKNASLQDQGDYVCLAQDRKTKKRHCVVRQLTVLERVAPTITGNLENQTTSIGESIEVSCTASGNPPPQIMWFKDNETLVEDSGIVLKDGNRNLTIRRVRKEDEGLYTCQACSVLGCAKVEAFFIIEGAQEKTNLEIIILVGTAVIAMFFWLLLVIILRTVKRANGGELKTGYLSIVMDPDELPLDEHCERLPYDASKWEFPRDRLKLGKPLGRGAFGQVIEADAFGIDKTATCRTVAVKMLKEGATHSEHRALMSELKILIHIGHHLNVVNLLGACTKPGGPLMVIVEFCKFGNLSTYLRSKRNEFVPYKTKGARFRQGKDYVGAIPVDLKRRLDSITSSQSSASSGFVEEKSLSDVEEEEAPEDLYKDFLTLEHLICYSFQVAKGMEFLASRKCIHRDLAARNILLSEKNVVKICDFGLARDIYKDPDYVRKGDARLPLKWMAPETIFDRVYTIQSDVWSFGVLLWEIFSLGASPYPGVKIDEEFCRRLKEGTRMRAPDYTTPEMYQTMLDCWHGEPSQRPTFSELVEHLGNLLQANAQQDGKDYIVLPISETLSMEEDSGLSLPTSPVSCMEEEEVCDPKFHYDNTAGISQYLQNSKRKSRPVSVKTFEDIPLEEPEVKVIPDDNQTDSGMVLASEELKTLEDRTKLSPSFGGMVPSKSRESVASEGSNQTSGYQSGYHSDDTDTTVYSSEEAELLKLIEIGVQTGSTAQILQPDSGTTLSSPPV
Description: (§4) Ba/F3-KDR (Minus IL3 or Plus IL3) (Cellular Proliferation Assay)
as §1, with “Ba/F3-KDR-transfected” for “Ba/F3-FGFR1-transfected”
as §2

[4] = target: Ba/F3-FGFR4-transfected cells (Homo sapiens, UniProt P22455); experiment: Ba/F3-FGFR4 cellular proliferation assay, Alamar Blue; type: cell-based; conditions: 24 hours
Chain of Ba/F3-FGFR4-transfected cells (P22455 whole entry, change not shown): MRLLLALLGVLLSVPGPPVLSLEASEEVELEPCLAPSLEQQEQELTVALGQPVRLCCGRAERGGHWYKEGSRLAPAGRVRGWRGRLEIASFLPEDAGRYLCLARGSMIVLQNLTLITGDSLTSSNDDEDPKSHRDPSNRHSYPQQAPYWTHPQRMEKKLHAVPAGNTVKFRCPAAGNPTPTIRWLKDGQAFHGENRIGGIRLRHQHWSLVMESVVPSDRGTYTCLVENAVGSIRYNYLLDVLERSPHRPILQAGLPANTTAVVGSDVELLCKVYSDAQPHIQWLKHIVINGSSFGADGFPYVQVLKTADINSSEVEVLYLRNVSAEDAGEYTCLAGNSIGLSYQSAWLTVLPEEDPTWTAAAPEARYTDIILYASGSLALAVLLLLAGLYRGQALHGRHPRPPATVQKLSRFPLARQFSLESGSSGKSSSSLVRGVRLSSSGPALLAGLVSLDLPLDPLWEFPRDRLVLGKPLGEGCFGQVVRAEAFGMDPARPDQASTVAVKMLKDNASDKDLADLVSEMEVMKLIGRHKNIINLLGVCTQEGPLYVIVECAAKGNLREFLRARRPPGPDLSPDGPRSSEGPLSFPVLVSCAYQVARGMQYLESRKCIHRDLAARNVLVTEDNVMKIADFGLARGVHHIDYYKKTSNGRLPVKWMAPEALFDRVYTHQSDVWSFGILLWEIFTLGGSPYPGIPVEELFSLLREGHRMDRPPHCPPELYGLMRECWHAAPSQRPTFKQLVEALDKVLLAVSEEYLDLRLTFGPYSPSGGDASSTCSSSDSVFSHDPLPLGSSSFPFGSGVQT
Description: Ba/F3-FGFR4 (Cellular Proliferation Assay)
as §1, with “Ba/F3-FGFR4-transfected” for “Ba/F3-FGFR1-transfected”
In this assay, the inhibitory effect of different compound concentrations (range 10 μM to 0.1 nM) was determined and used to calculate an IC50 (M) and pIC50 (−log IC50) value.

[5] = tested on: Ba/F3-FGFR3-transfected cells; experiment: Ba/F3-FGFR3 (minus IL3 or plus IL3) cellular proliferation assay, Alamar Blue; type: cell-based; conditions: plus IL3 (10 ng/ml murine IL3, counterscreen); 24 hours, Alamar Blue; read-out: BAF3-FGFR3 (PLUS IL3 Alamar Blue pIC50) (converted)
Description: as §3
as §1, with “Ba/F3-FGFR3-transfected” for “Ba/F3-FGFR1-transfected”
as §2

[6] = tested on: Ba/F3-KDR-transfected cells; experiment: Ba/F3-KDR (minus IL3 or plus IL3) cellular proliferation assay, Alamar Blue; type: cell-based; conditions: plus IL3 (10 ng/ml murine IL3, counterscreen); 24 hours, Alamar Blue; read-out: BAF3-KDR (PLUS IL3 Alamar Blue pIC50) (converted)
Description: as §4
as §1, with “Ba/F3-KDR-transfected” for “Ba/F3-FGFR1-transfected”
as §2

[7] = 0.4 μM ATP, read-out: FGFR 2 pIC50 (converted)
[8] = 25 μM ATP, read-out: hFGFR 3 pIC50 (converted)
[9] = 3 μM ATP, read-out: VEGFR KDR pIC50 (converted)

Structure (SMILES) | IC50 (FGFR2 (h); [7]) [M] | IC50 (FGFR3 (h); [8]) [M] | IC50 (FGFR4 (h)) [M] | IC50 (KDR (h); [9]) [M] | IC50 (FGFR1 (h)) [M] | BAF3-FGFR1 (MIN IL3 pIC50) [1] | BAF3-FGFR3 (MIN IL3 Alamar Blue- pIC50) [2] | BAF3-KDR (MIN IL3 Alamar Blue pIC50) [3] | BAF3-FGFR 4 (pIC50) [4] | IC50 [5] [µM] | IC50 [6] [µM] | IC50 (FGFR2 (h); FGFR 2 pIC50, 0.4 μM ATP) [M] | IC50 (FGFR3 (h); hFGFR 3 pIC50, 25 μM ATP) [M] | IC50 (KDR (h); VEGFR KDR pIC50, 3 μM ATP) [M]
COc1cc(OC)cc(C(CCO)c2ccc3ncc(-c4cnn(C)c4)cc3c2)c1 (single isomer, unassigned) [Compound 36] | > 1e-06 | > 1e-06 | > 1e-06 | > 1e-06 |  |  |  |  |  |  |  |  |  | 
COc1cc(OC)cc(N(CCNC(C)C)c2ccc3ncc(-c4cnn(CCO)c4)cc3c2)c1 [Compound 13] | 6.61e-09 | 4.9e-09 | 8.71e-09 | 1.29e-07 | 2.51e-09 | 7.23 | 7 | 5.57 | 6.81 |  |  |  |  | 
COc1cc(OC)cc(/C(=C\C#N)c2ccc3ncc(-c4cnn(C)c4)cc3c2)c1 [Compound 30] | 3.47e-08 | 2.19e-08 | 3.02e-07 | 3.31e-07 |  | 6.03 | 5.89 | 5.55 | 5.25 |  |  |  |  | 
COc1cc(OC)cc(C(=O)c2ccc3ncc(-c4cnn(C)c4)cc3c2)c1 [Compound 31] | 3.09e-08 | 1.86e-08 | 2.57e-07 | 1.58e-07 |  | 5.65 | 5.46 | <5 | 5.12 |  |  |  |  | 
COc1cc(OC)cc(C(CC(N)=O)c2ccc3ncc(-c4cnn(C)c4)cc3c2)c1 (stereo not drawn) [Compound 40] | 3.02e-07 | 2.19e-07 |  | > 1e-06 | 1.86e-07 | <5 | 5.08 | <5 | <5 | > 10 | > 10 |  |  | 
COc1cc(OC)cc(C(CCNC(C)C)c2ccc3ncc(-c4cnn(C)c4)cc3c2)c1 (stereo not drawn) [Compound 41] | 2.04e-08 | 3.89e-08 | 1.66e-07 | > 1e-06 |  | 6.43 | 6.30 | <5 | 5.78 | > 10 | > 10 |  |  | 
COc1cc(OC)cc(N(CC2CCC(=O)N2)c2ccc3ncc(-c4cnn(C)c4)cc3c2)c1 (stereo not drawn) [Compound 44] | 3.24e-09 | 1.7e-09 | ~1.35e-08 | 5.25e-08 |  | 5.65 | 6.61 | 5.18 | 6.00 | > 10 | > 10 |  |  | 
COc1cc(OC)cc(N(Cc2ncc[nH]2)c2ccc3ncc(C4=CCNCC4)cc3c2)c1 [Compound 46] |  |  | 1.7e-08 |  | 6.31e-09 | 5.89 | 5.68 | <5 | 5.28 |  |  | 3.63e-09 | 2.45e-09 | 1.02e-06
COc1cc(OC)cc(N(Cc2ncc[nH]2)c2ccc3ncc(C4CCNCC4)cc3c2)c1 [Compound 48a] | 1.7e-07 | 4.17e-07 | 8.32e-07 | > 1e-06 | 2.95e-07 | <5 | <5 | <5 | <5 | > 10 | > 10 |  |  | 
COc1cc(OC)cc(N(Cc2ncc[nH]2)c2ccc3ncc(N4CCOCC4)cc3c2)c1 [Compound 55] | 2e-08 | 2.04e-08 | 1.32e-07 | > 1e-06 | 9.12e-08 | 5.64 | 5.77 | <5 | 5.37 |  |  |  |  | 
COc1cc(OC)cc(N(Cc2ncc[nH]2)c2ccc3ncc(-c4ccn(C)c4)cc3c2)c1 [Compound 62] | 2.09e-09 | 1.45e-09 | 3.31e-09 | 2.57e-07 |  | 6.63 | 6.75 | <5 | 6.24 |  |  |  |  | 
